From US8207226B1, “Use of FAAH antagonists for treating dry eye and ocular pain” (Alcon Research, Ltd., priority 2008, dated 2012)

Test system: cornea (capsaicin-induced blinking)
Type: in vivo, Sprague-Dawley rats
Details: for reduction of blink rate elicited by capsaicin: topical ocular dosing in 10% cyclodextrin vehicle 5 min before capsaicin (5 μL of 0.0005%), seven week old Sprague-Dawley rats, blinks counted for one minute
Text: A capsaicin blink test was used to determine the pharmacological effect of two fatty acid amides, oleamide and anandamide. The test measured the pain response of the cornea by the number of times the animal blinked after the application of capsaicin.
Lyophilized anandamide was resuspended in an aqueous 10% cyclodextrin solution that was buffered with an aliquot of 10× phosphate buffered saline (PBS) (Laine et. al., 2001, Pharmaceutical Research. 18:494-499). The test article, either cyclodextrin vehicle or fatty acid amide (FAA), was dosed to both eyes of seven week old Sprague-Dawley rats (n=8, per group) five minutes prior to the application of capsaicin. Blinks were counted after the application of anandamide. Animals were dosed with 5 μL of vehicle in OS eye. After a 5-second period, blinks were counted for one minute. Capsaicin (5 μL of 0.0005%) was dosed in the OD eye. Blinks were counted in the same manner as the OS eye.

SMILES | blinking after test article alone (before capsaicin application) (rat, in vivo) | reduction of blink rate elicited by capsaicin [%] | solubility in the 10% cyclodextrin vehicle (rat, in vivo)
CCCCC/C=C\C/C=C\C/C=C\C/C=C\CCCC(=O)NCCO [anandamide] | rapid blinking for approximately one minute, followed by normal rates of blinking | 50 | 
CCCCCCCC/C=C\CCCCCCCC(N)=O [Oleamide, oleamide] |  | 20 | only partial solubility
